Source: patent publication US20080113899A1, “Iron Supplement and Utilization of the Same” (GEKKEIKAN SAKE CO., LTD., priority 2004, published 2008)
Where two headings read alike, the source gives them in different places. Marks after values point to notes of the source that are not given here. Non-standard residues stand in square brackets, D forms with d. Residues, ends and D or L forms follow the SMILES beside them. ξ: configuration not given here. ξOrn(N(OH)Ac) = CC(=O)N(O)CCCC(N)C(=O)O

What was measured:
[1] = test system: SD male rats having iron deficiency anemia; assay: Measurement of hemoglobin concentration in the blood; format: in vivo, rat; conditions: mean±SD of five rats
Excerpt: The rats in the control group were fed iron-containing food 1 (ferric citrate) during the study.

[2] = test system: SD male rats having iron deficiency anemia; assay: Measurement of serum iron concentration; format: in vivo, rat; conditions: 3 weeks free feeding, food iron content 35 ppm; mean±SD of five rats
Procedure: Serum was prepared from the blood wholly exsanguinated from the rats of each group after the rats had been given their iron-containing food, so as to measure iron concentrations in the serums by a usual method.

[3] = test system: SD male rats having iron deficiency anemia; assay: Measurement of iron concentration in the liver; format: in vivo, rat; conditions: 3 weeks free feeding, food iron content 35 ppm; mean±SD of five rats
Procedure: Rats of the control group were fed food 1 (ferric citrate) from the beginning, i.e. through to the end. At the end of the experiment, livers were removed after perfusion of saline into the portal vein to exclude the blood; they were weighed and freeze-dried. The dried liver was subsequently incinerated and subjected to atomic absorption, so as to measure the iron concentration in the liver. Further, the water content of the liver was calculated, and the concentration of iron stored in the liver of the body was determined based on the iron concentration in the dried liver and the water content of the liver.

[4] = test system: SD male rats having iron deficiency anemia; conditions: rat, in vivo
Excerpt: Five four-week-old SD male rats as the control group were fed iron-containing food 1.
The fifteen rats having iron deficiency anemia were subsequently divided into three groups, and were freely fed iron-containing foods 1, 2 and 3, respectively, for 3 weeks. As the iron source, iron-containing food 1 contains ferric citrate; iron-containing food 2 contains water-soluble heme iron; and iron-containing food 3 contains ferrichrysin.
Measurements were made by a usual method of the concentrations of protein, ALT (alanine aminotransferase), AST (aspartate aminotransferase) and creatinine in the serums of the groups of rats which were fed iron-containing food 1 (ferric citrate), food 2 (heme iron) and food 3 (ferrichrysin) after the development of iron deficiency anemia, as well as the rats in the control group which were fed food 1 (ferric citrate) from the beginning.

[5] = Solubility of ferrichrysin in water compared with other iron compounds; conditions: for Precipitate: 0.1 g in 1 ml, 37° C., 90 min, centrifuged, visual
Procedure: The solubility of ferrichrysin was compared with the solubilities of other iron compounds. Water-soluble heme iron, ferric citrate and ferrichrysin which were used in Example 1 were used as iron compounds. 0.1 g of each of these iron compounds was dissolved in 1 ml of each buffer having a pH of 2 or 7, and then the solutions were incubated at 37° C. for 90 min. A glycine/hydrochloric acid buffer was used as the pH 2 buffer, and a phosphate buffer was used as the pH 7 buffer. The concentration of buffer agent(s) in each buffer was adjusted to 0.1 mol/l. After being incubated, each buffer was centrifuged to visually confirm the presence or absence of precipitate. Further, the iron concentration in the supernatant of each buffer was measured by atomic absorption.

[6] = Thermal and pH stabilities of ferrichrysin (absorbance at 430 nm before/after sterilization); format: physicochemical; conditions: 0.25 mg/ml; for Absorbance at 430 nm after sterilization: 20 min, 120° C., 200 kPa
Procedure: Ferrichrysin is known to show an absorption maximum at 430 nm. Ferrichrysin was tested for pH and thermal stabilities utilizing this property.
Ferrichrysin prepared from a rice koji extract in the manner as described above was dissolved in ultrapure water to a concentration of 2.5 mg/ml. The resulting solution was subsequently diluted to give a ferrichrysin concentration of 0.25 mg/ml using each of the following buffers. A glycine-hydrochloric acid buffer was used for a pH 2 or pH 3 buffer; a acetate buffer was used for a pH 4 or pH 5 buffer; a phosphate buffer was used for a pH 6 or pH 7 buffer; a tris-hydrochloric acid buffer was used for a pH 8 buffer; and a glycine-sodium hydroxide buffer was used for a pH 9 or pH 10 buffer.
Each ferrichrysin solution was placed in a screw-cap test tube, and then the test tube was sealed. The solution was subsequently sterilized by a process of steaming under pressure for 20 min at a temperature of 120° C. and a pressure of 200 kPa. The absorbance of each solution at 430 nm was measured prior to and after the sterilization.

[7] = for Proportion of the iron concentration after the reaction to the initial iron concentration (1 mg/ml): phytic acid, 37° C., 3 hr, filtrate, cut-off 10000
Procedure: (§1) Ferrichrysin was tested for its reactivity with tannic acid and phytic acid, the typical iron uptake inhibitor, so as to compare its reactivity with that of other iron compounds with these iron uptake inhibitor.
(§2) A 0.6% tannic acid solution and a 0.6% phytic acid solution were also prepared. The pH of each of these solutions was adjusted with hydrochloric acid or sodium hydroxide to 2.0, 4.0, 6.0 or 8.0.
(§3) The iron-compound solutions were mixed with each of the tannic acid and phytic acid solutions at a volume ratio of 1:9, and then the mixtures were incubated at 37° C. for 3 hr, so as to react the iron compounds with each of these iron uptake inhibitor. The resulting solutions were centrifuged at 15000 rpm for 5 min, and then the supernatant of each solution was ultrafiltrated using membranes having a molecular weight cut-off of 10000. The iron concentration in each filtrate was measured by atomic absorption.

[8] = for Proportion of the iron concentration after the reaction to the initial iron concentration (1 mg/ml): tannic acid, 37° C., 3 hr, filtrate, cut-off 10000
Procedure: as §1, §2, §3

[9] = test system: SD male rats having iron deficiency anemia; conditions: rat, in vivo; remark: listed apart in the source

Creatinine [4]: 0.63 ± 0.06 mg/dL
Serum protein [4]: 67.6 ± 4.1 mg/mL
Water solubility, in words [5]: very high water solubility
Precipitate ([5]; pH 2.0): No
Precipitate ([5]; pH 7.0): No
Absorbance at 430 nm before sterilization ([6]; pH 2.0): 0.709
Absorbance at 430 nm after sterilization ([6]; pH 2.0): 0.366
Absorbance at 430 nm before sterilization ([6]; pH 3.0): 0.742
Absorbance at 430 nm after sterilization ([6]; pH 3.0): 0.721
Absorbance at 430 nm before sterilization ([6]; pH 4.0): 0.738
Absorbance at 430 nm after sterilization ([6]; pH 4.0): 0.743
Absorbance at 430 nm before sterilization ([6]; pH 5.0): 0.732
Absorbance at 430 nm after sterilization ([6]; pH 5.0): 0.748
Absorbance at 430 nm before sterilization ([6]; pH 6.0): 0.743
Absorbance at 430 nm after sterilization ([6]; pH 6.0): 0.746
Absorbance at 430 nm before sterilization ([6]; pH 7.0): 0.764
Absorbance at 430 nm after sterilization ([6]; pH 7.0): 0.774
Absorbance at 430 nm before sterilization ([6]; pH 8.0): 0.758
Absorbance at 430 nm after sterilization ([6]; pH 8.0): 0.747
Absorbance at 430 nm before sterilization ([6]; pH 9.0): 0.765
Absorbance at 430 nm after sterilization ([6]; pH 9.0): 0.767
Absorbance at 430 nm before sterilization ([6]; pH 10.0): 0.769
Absorbance at 430 nm after sterilization ([6]; pH 10.0): 0.772
Reactivity with iron-insolubilizing component, in words ([7]; pH 2): low reactivity
Proportion of the iron concentration after the reaction to the initial iron concentration (1 mg/ml) ([7]; pH 2.0): 85.7%
Proportion of the iron concentration after the reaction to the initial iron concentration (1 mg/ml) ([7]; pH 4.0): 100.6%
Proportion of the iron concentration after the reaction to the initial iron concentration (1 mg/ml) ([7]; pH 6.0): 101.8%
Proportion of the iron concentration after the reaction to the initial iron concentration (1 mg/ml) ([7]; pH 8.0): 100.3%
Reactivity with iron-insolubilizing component, in words ([8]; pH 2): low reactivity
Proportion of the iron concentration after the reaction to the initial iron concentration (1 mg/ml) ([8]; pH 2.0): 80.5%
Proportion of the iron concentration after the reaction to the initial iron concentration (1 mg/ml) ([8]; pH 4.0): 71.8%
Proportion of the iron concentration after the reaction to the initial iron concentration (1 mg/ml) ([8]; pH 6.0): 76.1%
Proportion of the iron concentration after the reaction to the initial iron concentration (1 mg/ml) ([8]; pH 8.0): 81.9%
Average food intake [9]: 366.3 g/3 weeks
Structure (SMILES): CC(=O)N([O-])CCCC1NC(=O)CNC(=O)C(CO)NC(=O)C(CO)NC(=O)C(CCCN([O-])C(C)=O)NC(=O)C(CCCN([O-])C(C)=O)NC1=O.[Fe+3] (stereo not drawn) [Ferrichrysin, ferrichrysin] (cyclo(G[ξOrn(N(OH)Ac)][ξOrn(N(OH)Ac)][ξOrn(N(OH)Ac)]SS); configuration not given here)
Hemoglobin concentration in the blood, after feeding iron-containing food ([1]; 3 weeks free feeding, food iron content 35 ppm): 14.3 ± 0.3 g/dL
Hemoglobin concentration in the blood, before feeding iron-containing food ([1]; baseline after 35 days iron-deficient food): 6.4 ± 0.9 g/dL
Serum iron concentration after feeding iron-containing food [2]: 116.7 ± 24.1 µg/dL
Iron concentration in the liver [3]: 39.3 ± 7.6 ppm
ALT [4]: 17.7 ± 2.3^a Karmen
AST [4]: 72.3 ± 3.2^b Karmen
Side effects on the body (liver and kidney function), in words [4]: no harmful side effects
Body weight gain [9]: 70.1 ± 8.3 g/3 weeks
